Results published in ChEMBL document CHEMBL1130587, “General synthesis of 3-substituted alkenyl GABA as potential anticonvulsants” (Bioorg Med Chem Lett, 1998).
Calls of active or inactive are those of the source. The calls are words filed in the database; no cut-off is given here.

Assay: Half life at a concentration 1 mM.
Assay type: ADME
With C=CC(CN)CC(=O)O (configuration not stated) the half-life at 1000 µM was 39 min.
Work on C=CC(N)CCC(=O)O (configuration not stated) [VIGABATRIN] yielded a half-life at 1000 µM of 0.3 min.

Assay: Compound was evaluated for its ability to increase the […] glutamate decarboxylase at 2.5 mM dose
Parameters: scale not given: the % may be the effect or the level left
In the case of CC(C)CC(CN)CC(=O)O (configuration not stated), the Activity is reported as 50%.

Assay: Compound was evaluated for the […] glutamate decarboxylase at 2.5 mM dose; No significant activation
For C=CC(CN)CC(=O)O (configuration not stated), the Activity was “inactive”.
For CCC/C=C\C(CN)CC(=O)O (configuration not stated), the Activity was “inactive”.
For CC/C=C/C(CN)CC(=O)O (configuration not stated), the Activity was “inactive”.
With CC(C)=CC(CN)CC(=O)O (configuration not stated) the Activity was “inactive”.
In the case of C/C=C(\C)C(CN)CC(=O)O (configuration not stated), the Activity is reported as “inactive”.
In the case of C/C=C/C(CN)CC(=O)O (configuration not stated), the Activity is reported as “inactive”.
With CC(C)/C=C\C(CN)CC(=O)O (configuration not stated) the Activity was “inactive”.
In the case of C/C=C\C(CN)CC(=O)O (configuration not stated), the Activity is reported as “inactive”.
For CC/C=C\C(CN)CC(=O)O (configuration not stated), the Activity was “inactive”.
